Tests used:
MGC-803 = assay: Antiproliferative activity against human MGC-803 cells assessed as inhibition of cell proliferation incubated for 48 hrs by MTT assay; format: functional, cell-based; details: MGC-803, 48 h
KYSE-30 = assay: cells; details: Homo sapiens, KYSE-30, 48 h
Description: Antiproliferative activity against human KYSE-30 cells assessed as inhibition of cell proliferation incubated for 48 hrs by MTT assay

HCT-116 = assay: cells; details: Homo sapiens, HCT-116, 48 h
Description: Antiproliferative activity against human HCT-116 cells assessed as inhibition of cell proliferation incubated for 48 hrs by MTT assay

[1] = Cytotoxicity against HUVEC cells assessed as inhibition of cell growth incubated for 48 hrs by MTT assay; format: toxicity, cell-based; details: human
[2] = Toxicity in female BALB/c-nu nude mouse xenografted with human KYSE-30 cells assessed as effect on body weight at 6 to 12 mg/kg, ip administered for 15 days; format: organism-based; details: in vivo, 360 h, dose 6-12 mg/kg, time 15 day

Structure (SMILES) | IC50 (MGC-803) [nM] | IC50 (KYSE-30) [nM] | IC50 (HCT-116) [nM] | IC50 at 48 h [1] [nM] | Activity [2]
CC(C)Oc1ccc(-c2cnoc2-c2ccnc3ccccc23)cc1 | 489 | 1510 | 4500 |  | 
c1ccc2c(-c3oncc3-c3ccc4c(c3)CCO4)ccnc2c1 | 2120 | 723 | > 10000 |  | 
c1ccc2c(-c3[nH]nnc3-c3ccc4[nH]c5ccccc5c4c3)ccnc2c1 | > 10000 | > 10000 | > 10000 |  | 
COc1ccc(-c2[nH]nnc2-c2ccnc3ccccc23)cc1 | 153 | 1350 | 773 |  | 
COc1cccc(-c2cnoc2-c2cc(C)nc3ccccc23)c1 | 101 | 349 | 288 |  | 
CCCOc1ccc(-c2cnoc2-c2ccnc3ccccc23)cc1 | 435 | 714 | 603 |  | 
COc1cccc(-c2[nH]nnc2-c2ccnc3ccccc23)c1 | > 10000 | > 10000 | > 10000 |  | 
CCCOc1ccc(-c2cnoc2-c2cc(C)nc3ccccc23)cc1 | 58 | > 800 | > 800 |  | 
COc1ccccc1-c1cn[nH]c1-c1ccnc2ccccc12 | > 10000 | > 10000 | > 10000 |  | 
COc1cccc(-c2cnoc2-c2ccnc3ccccc23)c1 | 2530 | 4570 | 5420 |  | 
COc1ccc(-c2cn[nH]c2-c2cc(C)nc3ccccc23)cc1 | 39 | 92 | 68 | > 710 | 
CC(C)Oc1ccc(-c2nn[nH]c2-c2ccnc3ccccc23)cc1 | 3360 | 244 | 705 |  | 
CCOc1ccc(-c2cnoc2-c2ccnc3ccccc23)cc1 | 14 | 122 | 39 |  | 
Cc1cccc(-c2nn[nH]c2-c2ccnc3ccccc23)c1 | > 10000 | > 10000 | > 10000 |  | 
COc1ccc(-c2cnoc2-c2ccnc3ccccc23)cc1 | 24 | 354 | 982 |  | 
COc1ccccc1-c1cnoc1-c1cc(C)nc2ccccc12 | 1960 | 7530 | 8580 |  | 
COc1cccc(-c2cn[nH]c2-c2cc(C)nc3ccccc23)c1 | 293 | 403 | 245 |  | 
CCOc1ccc(-c2cn[nH]c2-c2cc(C)nc3ccccc23)cc1 | 31 | 65 | 44 | > 710 | 
COc1cccc(-c2cn[nH]c2-c2ccnc3ccccc23)c1 | 1540 | 3190 | 5530 |  | 
Cc1cc(-c2oncc2-c2ccc(OC(C)C)cc2)c2ccccc2n1 | 49 | 226 | 133 |  | 
Cc1ccccc1-c1nn[nH]c1-c1ccnc2ccccc12 | > 10000 | > 10000 | > 10000 |  | 
COc1ccc(-c2cn[nH]c2-c2ccnc3ccccc23)cc1[N+](=O)[O-] | 1980 | > 2510 | > 10000 |  | 
Cc1ccc(-c2nn[nH]c2-c2ccnc3ccccc23)cc1 | 5800 | 1650 | 3680 |  | 
Cc1cc(-c2[nH]ncc2-c2ccc3c(c2)CCO3)c2ccccc2n1 | 3240 | 491 | 740 |  | 

Structure (SMILES) | IC50 (MGC-803) [nM] | IC50 (KYSE-30) [nM] | IC50 (HCT-116) [nM] | IC50 at 48 h [1] [nM] | Activity [2]
Cc1cc(-c2oncc2-c2ccc3c(c2)CCO3)c2ccccc2n1 | 410 | > 800 | > 800 |  | 
CCOc1ccc(-c2[nH]nnc2-c2ccnc3ccccc23)cc1 | 59 | 287 | 381 |  | 
c1ccc2c(-c3[nH]nnc3-c3ccc4occc4c3)ccnc2c1 | 8460 | 3400 | 7760 |  | 
COc1ccccc1-c1cn[nH]c1-c1cc(C)nc2ccccc12 | > 800 | > 800 | > 800 |  | 
c1ccc2c(-c3[nH]nnc3-c3ccc4sc5ccccc5c4c3)ccnc2c1 | > 10000 | > 10000 | > 10000 |  | 
CCOc1ccc(-c2cn[nH]c2-c2ccnc3ccccc23)cc1 | 249 | 3170 | 437 |  | 
COc1ccccc1-c1cnoc1-c1ccnc2ccccc12 | > 10000 | > 10000 | > 10000 |  | 
CC(C)Oc1ccc(-c2cn[nH]c2-c2ccnc3ccccc23)cc1 | 4830 | > 10000 | > 10000 |  | 
CCCOc1ccc(-c2cn[nH]c2-c2cc(C)nc3ccccc23)cc1 | 130 | > 800 | 90 |  | 
CCCOc1ccc(-c2cn[nH]c2-c2ccnc3ccccc23)cc1 | 875 | 6410 | 6040 |  | 
Cc1cc(-c2[nH]ncc2-c2ccc(OC(C)C)cc2)c2ccccc2n1 | 330 | > 800 | > 800 |  | 
COc1ccc(-c2nn[nH]c2-c2ccnc3ccccc23)cc1O | 32 | 21 | 24 |  | 
COc1ccc(-c2cn[nH]c2-c2ccnc3ccccc23)cc1 | 199 | 1020 | 958 |  | 
CCOc1ccc(-c2cnoc2-c2cc(C)nc3ccccc23)cc1 | 18 | 14 | > 800 | > 710 | Non-Toxic
COc1ccccc1-c1[nH]nnc1-c1ccnc2ccccc12 | > 10000 | > 10000 | > 10000 |  | 
c1ccc2c(-c3[nH]nnc3-c3ccc4sccc4c3)ccnc2c1 | > 10000 | > 10000 | > 10000 |  | 
c1cc(-c2nn[nH]c2-c2ccnc3ccccc23)c2occc2c1 | > 10000 | > 10000 | > 10000 |  | 
COc1ccc(-c2cnoc2-c2ccnc3ccccc23)cc1[N+](=O)[O-] | 28 | 194 | 2320 |  | 
c1ccc2c(-c3[nH]ncc3-c3ccc4c(c3)CCO4)ccnc2c1 | > 10000 | 10000 | > 10000 |  | 
COc1ccc(-c2cnoc2-c2cc(C)nc3ccccc23)cc1[N+](=O)[O-] | 65 | 103 | 54 |  | 
c1ccc2c(-c3[nH]nnc3-c3ccc4oc5ccccc5c4c3)ccnc2c1 | > 10000 | > 10000 | > 10000 |  | 
c1ccc2c(-c3[nH]nnc3-c3ccc4[nH]ccc4c3)ccnc2c1 | 188 | 178 | 211 |  | 
c1ccc2c(-c3[nH]nnc3-c3ccc4c(c3)CCO4)ccnc2c1 | 5690 | 6370 | > 10000 |  | 
